What was measured:
[1] = test system: α-SMA expression induced by TGFβ2 in cardiac fibroblasts; assay: Fibrosis inhibition evaluation 2: immunofluorescent staining of α-SMA in cardiac fibroblasts; format: cell-based, rats; settings: 10 μM, TGFβ2 2 ng/ml, 48 hours, FIG. 8
Experimental: In the same manner as in Test Example 5, dermal fibroblasts were isolated from mice, and sterilized cover glass (diameter: 12 mm) was placed in a 12-well plate. On the cover glass, 2.5×10^5 cells were seeded and grown. After 24 hours, the medium was replaced with a medium free of fetal bovine serum, and the cells were cultured for another 24 hours. Separately, cardiac fibroblasts were isolated from 1 to 2-day-old rats and treated in the same manner as for the dermal fibroblasts. Thereafter, 10 ng/ml TGFβ1 was added to the dermal fibroblasts, and 2 ng/ml TGFβ2 was added to the cardiac fibroblasts, followed by culturing the cells for 48 hours. At the same time as TGFβ was added, 10 μM of a test compound (compound 011), 10 μM of Pyr 2 (conventional inhibitor), or DMSO (solvent control) was also added. Separately, cultured cells to which TGFβ-free phosphate buffered saline (PBS) was added were also prepared. […] After blocking with 1% bovine serum albumin, α-SMA was detected using anti-α-SMA antibody (Sigma) as the primary antibody and anti-mouse IgG antibody (Molecular Probes) fused with Alexa 488 as the secondary antibody, and an image was acquired using a fluorescence microscope (Keyence) with a 20× objective lens. The average fluorescence brightness (fluorescence intensity/pixel) per cell area was calculated and analyzed using Image J software.

TRPC3 channel = target: T1, TRPC3 channel (Homo sapiens, UniProt Q13507); assay: Calcium assay using HEK293 cells transiently expressing TRPC3 channel, carbachol activation (Fura-2); format: cell-based
T1 construct: expressed in transfected cells; host or cells: HEK293
T1 sequence (Q13507 1-921): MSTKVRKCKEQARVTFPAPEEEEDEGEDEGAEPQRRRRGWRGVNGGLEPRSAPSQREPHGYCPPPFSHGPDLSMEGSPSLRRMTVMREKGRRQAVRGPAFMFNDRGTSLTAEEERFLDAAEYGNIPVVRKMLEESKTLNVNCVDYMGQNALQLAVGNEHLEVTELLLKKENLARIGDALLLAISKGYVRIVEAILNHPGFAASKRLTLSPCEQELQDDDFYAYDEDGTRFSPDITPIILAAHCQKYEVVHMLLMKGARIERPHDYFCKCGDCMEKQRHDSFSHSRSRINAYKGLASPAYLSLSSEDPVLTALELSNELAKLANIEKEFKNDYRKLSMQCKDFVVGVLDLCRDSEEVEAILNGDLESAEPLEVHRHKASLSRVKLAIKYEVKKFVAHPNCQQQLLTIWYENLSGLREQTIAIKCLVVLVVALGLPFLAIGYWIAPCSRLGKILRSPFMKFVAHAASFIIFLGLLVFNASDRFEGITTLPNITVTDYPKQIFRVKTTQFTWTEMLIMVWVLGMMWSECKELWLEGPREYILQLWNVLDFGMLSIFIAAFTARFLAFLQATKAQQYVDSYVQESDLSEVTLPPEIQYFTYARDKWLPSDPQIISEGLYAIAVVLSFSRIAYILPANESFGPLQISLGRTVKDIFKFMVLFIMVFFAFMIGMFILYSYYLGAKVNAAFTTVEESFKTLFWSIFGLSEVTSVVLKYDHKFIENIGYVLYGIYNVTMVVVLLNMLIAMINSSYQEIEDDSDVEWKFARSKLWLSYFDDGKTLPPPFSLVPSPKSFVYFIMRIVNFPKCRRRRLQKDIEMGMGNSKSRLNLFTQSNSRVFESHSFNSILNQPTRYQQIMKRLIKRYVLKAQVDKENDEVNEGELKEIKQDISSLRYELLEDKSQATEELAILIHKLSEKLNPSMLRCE
Experimental: A TRPC6 gene was introduced into HEK293 cells (cells derived from human fetal kidney) by lipofection, and the TRPC6 channel was expressed on the cell membrane. Specifically, the plasmid DNA of TRPC6 (pCI-neo; Promega Corporation) was introduced into HEK293 cells using a lipofection reagent, and then cultured at 37° C. for 24 to 48 hours to express the TRPC6 channel on the cell membrane. In the same manner, HEK293 cells into which the TRPC3 gene was introduced were cultured, and the TRPC3 channel was expressed on the cell membrane.
The cultured cells were peeled off with trypsin and seeded on a cover glass again, followed by culturing the cells at 37° C. for 3 hours again. A Fura-2 AM calcium indicator was added to the medium, and the cells were cultured at 37° C. for 30 minutes to allow the cells to incorporate the indicator. For the extracellular solution, a Ca^2+-containing solution and a Ca^2+-free solution were prepared. • Ca^2+-containing solution: 2 mM CaCl2, 132 mM NaCl, 4 mM KCl, 1 mM MgCl2, 5 mM glucose, 5 mM HEPES (pH 7.4) • Ca^2+-free solution: 132 mM NaCl, 4 mM KCl, 1 mM MgCl2, 5 mM glucose, 5 mM HEPES (pH 7.4) […]

dermal fibroblasts = assay: Fibrosis inhibition evaluation 1: cell morphology observation of dermal fibroblasts; format: cell-based, mice; settings: dermal fibroblasts cultured 48 hours with TGFβ1

Q: `O=C(O)c1cnc(N2CCN(c3noc4cccc(C(F)(F)F)c34)CC2)c(Cl)c1` [Compound 011, 5-chloro-6-(4-(4-(trifluoromethyl)benzo[d]isoxazol-3-yl)piperazin-1-yl) nicotinic acid] was tested. Which “expression of α-SMA induced by TGFβ (immunofluorescent staining)” value [1] did it give?
A: almost completely suppressed the expression of α-SMA

Q: And the “Ca2+ concentration in the cells reached after addition of carbachol” value (TRPC3 channel; TRPC3, FIG. 2, from about 100 nM, control (DMSO) about 350 nM)?
A: about 180 nM

Q: What about the IC50 (TRPC3 channel; TRPC3-expressing HEK293 cells, carbachol 100 μM, from concentration-response curves, read-out: IC50 for inhibition of the TRPC3 channel) of the same molecule?
A: 700 nM

Q: And the “cell morphology / cell damage by microscopic observation” value (dermal fibroblasts)?
A: no change in cell morphology and no cell damage

From patent publication US11976062B2, “Benzisoxazole compound” (OSAKA UNIVERSITY, priority 2018, dated 2024)
